Reference: ChEMBL document CHEMBL1201862, “PubChem BioAssay data set” (2004)
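Assay format: 96-well plates, 48-hour exposure. GI50 = concentration required for 50% inhibition of growth.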 Activity calls are given as the source filed them. Rule as the data show it: active = GI50 up to about 1.1 µM and inactive = higher.

Experiments:
Assay in all cases: DTP human tumour cell line panel, 48 h
HL-60 = test system: HL-60
HOP-92 = test system: HOP-92
CAKI-1 = test system: CAKI-1
A549 = test system: A549
EKVX = test system: EKVX
RXF 393 = test system: RXF 393
SK-MEL-5 = test system: SK-MEL-5
A498 = test system: A498
NCI-H226 = test system: NCI-H226
NCI-H460 = test system: NCI-H460
SNB-75 = test system: SNB-75
HCT-116 = test system: HCT-116
MDA-MB-231 = test system: MDA-MB-231
SF-268 = test system: SF-268
MDA-N = test system: MDA-N
HOP-62 = test system: HOP-62
OVCAR-5 = test system: OVCAR-5
SK-OV-3 = test system: SK-OV-3
IGROV-1 = test system: IGROV-1
RPMI-8226 = test system: RPMI-8226

COC(=O)c1ccccc1C1CN=NC12Cc1ccc(C)cc1C2=O (stereo not given)
GI50 (HL-60): 33.3 µM (inactive)
GI50 (HOP-92): 38.9 µM (inactive)
GI50 (CAKI-1): 84.5 µM (inactive)
GI50 (A549): 47.6 µM (inactive)
GI50 (EKVX): 65.8 µM (inactive)
GI50 (RXF 393): 97.7 µM (inactive)
GI50 (SK-MEL-5): 38.1 µM (inactive)
GI50 (A498): > 100 µM (inactive)
GI50 (NCI-H226): 73.1 µM (inactive)
GI50 (NCI-H460): > 100 µM (inactive)
GI50 (SNB-75): 90.6 µM (inactive)
GI50 (HCT-116): 38.6 µM (inactive)
GI50 (MDA-MB-231): > 100 µM (inactive)
GI50 (SF-268): > 100 µM (inactive)
GI50 (MDA-N): 27.7 µM (inactive)
GI50 (HOP-62): > 100 µM (inactive)
GI50 (OVCAR-5): > 100 µM (inactive)
GI50 (SK-OV-3): > 100 µM (inactive)
GI50 (IGROV-1): 63.8 µM (inactive)
GI50 (RPMI-8226): 49.7 µM (inactive)

O=C1CC2(CCNCC2)C(=O)N1N1CCOCC1
GI50 (HL-60): > 100 µM (inactive)
GI50 (HOP-92): > 100 µM (inactive)
GI50 (CAKI-1): > 100 µM (inactive)
GI50 (A549): > 100 µM (inactive)
GI50 (EKVX): > 100 µM (inactive)
GI50 (RXF 393): > 100 µM (inactive)
GI50 (SK-MEL-5): > 100 µM (inactive)
GI50 (A498): > 100 µM (inactive)
GI50 (NCI-H226): > 100 µM (inactive)
GI50 (NCI-H460): > 100 µM (inactive)
GI50 (SNB-75): > 100 µM (inactive)
GI50 (HCT-116): > 100 µM (inactive)
GI50 (MDA-MB-231): > 100 µM (inactive)
GI50 (SF-268): > 100 µM (inactive)
GI50 (MDA-N): > 100 µM (inactive)
GI50 (HOP-62): > 100 µM (inactive)
GI50 (OVCAR-5): > 100 µM (inactive)
GI50 (SK-OV-3): > 100 µM (inactive)
GI50 (IGROV-1): > 100 µM (inactive)
GI50 (RPMI-8226): > 100 µM (inactive)

BrC(Br)=C1C(=C(Br)Br)C(Br)C1Br (stereo not given)
GI50 (HL-60): < 0.0125 µM (active)
GI50 (HOP-92): 1.34 µM (inactive)
GI50 (CAKI-1): 0.132 µM (active)
GI50 (A549): 0.796 µM (active)
GI50 (EKVX): 2.08 µM (inactive)
GI50 (RXF 393): 0.226 µM (active)
GI50 (SK-MEL-5): 0.826 µM (active)
GI50 (A498): 1.06 µM (active)
GI50 (NCI-H226): 0.275 µM (active)
GI50 (NCI-H460): 0.114 µM (active)
GI50 (SNB-75): 1.69 µM (inactive)
GI50 (HCT-116): 0.302 µM (active)
GI50 (MDA-MB-231): 1.12 µM (inactive)
GI50 (SF-268): 0.274 µM (active)
GI50 (MDA-N): 0.368 µM (active)
GI50 (HOP-62): 1.02 µM (active)
GI50 (OVCAR-5): 1.69 µM (inactive)
GI50 (SK-OV-3): 3.33 µM (inactive)
GI50 (IGROV-1): 0.628 µM (active)
GI50 (RPMI-8226): 0.158 µM (active)

C/C(=C/CC[C@](C)(OC1OC(CO)C(O)C(O)C1O)[C@H]1CC[C@]2(C)[C@@H]1CC[C@@H]1[C@@]3(C)CC[C@H](O)C(C)(C)[C@@H]3C[C@H](O)[C@]12C)CO (stereo not given in full)
GI50 (HL-60): 16.5 µM (inactive)
GI50 (HOP-92): 27.4 µM (inactive)
GI50 (CAKI-1): 31.7 µM (inactive)
GI50 (A549): 39.5 µM (inactive)
GI50 (EKVX): 60.8 µM (inactive)
GI50 (RXF 393): 3.46 µM (inactive)
GI50 (SK-MEL-5): 18.2 µM (inactive)
GI50 (A498): 60 µM (inactive)
GI50 (NCI-H226): 26.8 µM (inactive)
GI50 (NCI-H460): 16.8 µM (inactive)
GI50 (SNB-75): 8.43 µM (inactive)
GI50 (HCT-116): 18.2 µM (inactive)
GI50 (MDA-MB-231): 31.3 µM (inactive)
GI50 (SF-268): 21.8 µM (inactive)
GI50 (MDA-N): 24.2 µM (inactive)
GI50 (HOP-62): 26.3 µM (inactive)
GI50 (OVCAR-5): 49.8 µM (inactive)
GI50 (SK-OV-3): 21.9 µM (inactive)
GI50 (IGROV-1): 38 µM (inactive)
GI50 (RPMI-8226): 5.4 µM (inactive)

C=CCn1c(=O)ccn(/C(=C/C(=O)OCC)C(=O)OCC)c1=O
GI50 (HL-60): 1.76 µM (inactive)
GI50 (HOP-92): 2.36 µM (inactive)
GI50 (CAKI-1): 1.91 µM (inactive)
GI50 (A549): 17.5 µM (inactive)
GI50 (EKVX): 17.2 µM (inactive)
GI50 (RXF 393): 14.1 µM (inactive)
GI50 (SK-MEL-5): 15.1 µM (inactive)
GI50 (A498): 17.9 µM (inactive)
GI50 (NCI-H226): 13.9 µM (inactive)
GI50 (NCI-H460): 16.1 µM (inactive)
GI50 (SNB-75): 16.1 µM (inactive)
GI50 (HCT-116): 7.1 µM (inactive)
GI50 (MDA-MB-231): 9.82 µM (inactive)
GI50 (SF-268): 19.7 µM (inactive)
GI50 (MDA-N): 15.5 µM (inactive)
GI50 (HOP-62): 20.9 µM (inactive)
GI50 (OVCAR-5): 15.6 µM (inactive)
GI50 (SK-OV-3): 25.7 µM (inactive)
GI50 (IGROV-1): 15.3 µM (inactive)
GI50 (RPMI-8226): 7.94 µM (inactive)

CC(Oc1ccccc1Cl)C(=O)NN1C(=O)CSC1c1ccccc1 (stereo not given)
GI50 (HL-60): 28.2 µM (inactive)
GI50 (HOP-92): 57.3 µM (inactive)
GI50 (CAKI-1): > 100 µM (inactive)
GI50 (A549): 62.7 µM (inactive)
GI50 (EKVX): > 100 µM (inactive)
GI50 (RXF 393): 61.2 µM (inactive)
GI50 (SK-MEL-5): > 100 µM (inactive)
GI50 (A498): > 100 µM (inactive)
GI50 (NCI-H226): > 100 µM (inactive)
GI50 (NCI-H460): > 100 µM (inactive)
GI50 (SNB-75): > 100 µM (inactive)
GI50 (HCT-116): 34.9 µM (inactive)
GI50 (MDA-MB-231): > 100 µM (inactive)
GI50 (SF-268): > 100 µM (inactive)
GI50 (MDA-N): 57.8 µM (inactive)
GI50 (HOP-62): > 100 µM (inactive)
GI50 (OVCAR-5): > 100 µM (inactive)
GI50 (SK-OV-3): > 100 µM (inactive)
GI50 (IGROV-1): > 100 µM (inactive)
GI50 (RPMI-8226): 83 µM (inactive)

N#CC1CCCC2SC(F)(F)C(F)(F)C12 (stereo not given)
GI50 (HL-60): 19.7 µM (inactive)
GI50 (HOP-92): > 100 µM (inactive)
GI50 (CAKI-1): > 100 µM (inactive)
GI50 (A549): > 100 µM (inactive)
GI50 (EKVX): > 100 µM (inactive)
GI50 (RXF 393): > 100 µM (inactive)
GI50 (SK-MEL-5): > 100 µM (inactive)
GI50 (A498): > 100 µM (inactive)
GI50 (NCI-H226): > 100 µM (inactive)
GI50 (NCI-H460): > 100 µM (inactive)
GI50 (SNB-75): > 88.3 µM (inactive)
GI50 (HCT-116): > 100 µM (inactive)
GI50 (MDA-MB-231): > 100 µM (inactive)
GI50 (SF-268): > 100 µM (inactive)
GI50 (MDA-N): > 100 µM (inactive)
GI50 (HOP-62): > 100 µM (inactive)
GI50 (OVCAR-5): > 100 µM (inactive)
GI50 (SK-OV-3): > 100 µM (inactive)
GI50 (IGROV-1): > 100 µM (inactive)
GI50 (RPMI-8226): > 46.8 µM (inactive)

CC(=O)NNc1nc(C)c(C(/C=C/c2ccc([N+](=O)[O-])cc2)=N/NC(N)=S)s1
GI50 (HL-60): > 100 µM (inactive)
GI50 (HOP-92): > 100 µM (inactive)
GI50 (CAKI-1): > 100 µM (inactive)
GI50 (A549): > 100 µM (inactive)
GI50 (EKVX): > 100 µM (inactive)
GI50 (RXF 393): > 100 µM (inactive)
GI50 (SK-MEL-5): > 100 µM (inactive)
GI50 (A498): > 100 µM (inactive)
GI50 (NCI-H226): > 100 µM (inactive)
GI50 (NCI-H460): > 100 µM (inactive)
GI50 (SNB-75): > 100 µM (inactive)
GI50 (HCT-116): > 100 µM (inactive)
GI50 (MDA-MB-231): > 100 µM (inactive)
GI50 (SF-268): > 100 µM (inactive)
GI50 (MDA-N): > 100 µM (inactive)
GI50 (HOP-62): > 100 µM (inactive)
GI50 (OVCAR-5): > 100 µM (inactive)
GI50 (SK-OV-3): > 100 µM (inactive)
GI50 (IGROV-1): > 100 µM (inactive)
GI50 (RPMI-8226): > 100 µM (inactive)

C=C1[C@H](OC(=O)C(C)C)[C@]23CC4(O)[C@@H]5[C@@]6(C)CCC[C@]57C([C@@H]2C[C@@]1(O)[C@H](O)[C@@H]73)N4C6
GI50 (HL-60): > 100 µM (inactive)
GI50 (HOP-92): > 100 µM (inactive)
GI50 (CAKI-1): > 100 µM (inactive)
GI50 (A549): > 100 µM (inactive)
GI50 (EKVX): > 100 µM (inactive)
GI50 (RXF 393): > 100 µM (inactive)
GI50 (SK-MEL-5): > 100 µM (inactive)
GI50 (A498): > 100 µM (inactive)
GI50 (NCI-H226): > 100 µM (inactive)
GI50 (NCI-H460): > 100 µM (inactive)
GI50 (SNB-75): > 100 µM (inactive)
GI50 (HCT-116): > 100 µM (inactive)
GI50 (MDA-MB-231): > 100 µM (inactive)
GI50 (SF-268): > 100 µM (inactive)
GI50 (MDA-N): > 100 µM (inactive)
GI50 (HOP-62): > 100 µM (inactive)
GI50 (OVCAR-5): > 100 µM (inactive)
GI50 (SK-OV-3): 98.6 µM (inactive)
GI50 (IGROV-1): > 100 µM (inactive)
GI50 (RPMI-8226): > 100 µM (inactive)
